We go through 15 molecules from US9073855B2, “BCL-2 selective apoptosis-inducing agents for the treatment of cancer and immune diseases” (AbbVie Inc., priority 2008, dated 2015).

The target of one assay is GST-Bcl-2 (Homo sapiens, UniProt P10415). As to the kind of experiment: TR-FRET binding assay, GST-Bcl-2 with F-Bak peptide probe. Conditions: for Ki: TR-FRET Binding Affinity; for Binding selectivity ratio (Bcl-XL Ki/Bcl-2 Ki): TR-FRET, Bcl-XL Ki divided by Bcl-2 Ki. The procedure, abridged:
(§1)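 Ki was derived with Wang's equation for competitive binding of two ligands. The read-out was time-resolved fluorescence after a 3 h room-temperature incubation, using a Tb-labelled antibody donor and the F-Bak peptide acceptor (excitation 340/35 nm). Test compounds entered as DMSO serial dilutions starting at 50 μM, which was the 2× concentration.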
In general terms: In TR-FRET formats the signal depends on donor and acceptor labels being close together.

For a further assay, the target named is GST-Bcl-XL (Homo sapiens, UniProt Q07817). As to the kind of experiment: TR-FRET binding assay, GST-Bcl-XL with F-Bak peptide probe. The conditions noted are these: TR-FRET Binding Affinity. The method in brief:
as §1

Sequence of GST-Bcl-2 (P10415 whole entry): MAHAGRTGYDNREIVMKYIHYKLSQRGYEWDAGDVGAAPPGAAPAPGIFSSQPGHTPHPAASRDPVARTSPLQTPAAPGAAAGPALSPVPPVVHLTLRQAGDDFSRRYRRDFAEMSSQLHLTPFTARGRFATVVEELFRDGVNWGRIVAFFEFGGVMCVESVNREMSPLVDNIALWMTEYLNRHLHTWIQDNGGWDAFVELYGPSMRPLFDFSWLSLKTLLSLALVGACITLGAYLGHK
Sequence of GST-Bcl-XL (Q07817 whole entry): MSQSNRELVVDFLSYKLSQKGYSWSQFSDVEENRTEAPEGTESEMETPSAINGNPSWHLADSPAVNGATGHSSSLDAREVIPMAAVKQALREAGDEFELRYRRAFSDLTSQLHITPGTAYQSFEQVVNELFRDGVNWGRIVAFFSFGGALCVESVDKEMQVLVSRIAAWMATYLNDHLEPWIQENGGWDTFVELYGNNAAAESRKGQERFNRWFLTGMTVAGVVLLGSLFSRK

One may read the Ki as the equilibrium dissociation constant of an inhibitor or competing ligand from its target. Low values mean tighter binding, high ones weaker binding. As for `CC1(C)CCC(CN2CCN(c3ccc(C(=O)NS(=O)(=O)c4ccc(OCC5(F)CCOCC5)c([N+](=O)[O-])c4)c(Oc4cccc5[nH]nnc45)c3)CC2)=C(c2ccc(Cl)cc2)C1` [Example 519, 2-(1H-benzotriazol-4-yloxy)-4-(4-{[2-(4-chlorophenyl)-4,4-dimethylcyclohex-1-en-1-yl]methyl}piperazin-1-yl)-N-({4-[(4-fluorotetrahydro-2H-pyran-4-yl)methoxy]-3-nitrophenyl}sulfonyl)benzamide], at GST-Bcl-2, the Ki is 0.012 nM and the “Binding selectivity ratio (Bcl-XL Ki/Bcl-2 Ki)” value (from here on “Binding selectivity ratio”) is reported as 25935.4. The same molecule returned a Ki at GST-Bcl-XL of 311 nM.
As for `CC1(C)CCC(CN2CCN(c3ccc(C(=O)NS(=O)(=O)c4cnc(OC[C@@H]5C[C@H]6C[C@@H]5C[C@@]6(C)O)c(Cl)c4)c(Oc4cccc5[nH]ncc45)c3)CC2)=C(c2ccc(Cl)cc2)C1` [Example 520, N-[(5-chloro-6-{[(1R,2R,4R,5R)-5-hydroxy-5-methylbicyclo[2.2.1]hept-2-yl]methoxy}pyridin-3-yl)sulfonyl]-4-(4-{[2-(4-chlorophenyl)-4,4-dimethylcyclohex-1-en-1-yl]methyl}piperazin-1-yl)-2-(1H-indazol-4-yloxy)benzamide], the Ki is under 0.01 nM on GST-Bcl-2 and 15.4 nM at GST-Bcl-XL. The “Binding selectivity ratio” value at GST-Bcl-2 is over 1537.8.
The matching figures for `O=C(NS(=O)(=O)c1cnc(OCC2(F)CCOCC2)c(Cl)c1)c1ccc(N2CCN(CC3=C(c4ccc(Cl)cc4)CCC(F)(F)C3)CC2)cc1Oc1cccc2[nH]ncc12` [Example 521, N-({5-chloro-6-[(4-fluorotetrahydro-2H-pyran-4-yl)methoxy]pyridin-3-yl}sulfonyl)-4-(4-{[2-(4-chlorophenyl)-5,5-difluorocyclohex-1-en-1-yl]methyl}piperazin-1-yl)-2-(1H-indazol-4-yloxy)benzamide]: under 0.01 nM, 4.67 nM and over 466.9.
For `O=C(NS(=O)(=O)c1cnc(OCC2(F)CCN(C3COC3)CC2)c(Cl)c1)c1ccc(N2CCN(CC3=C(c4ccc(Cl)cc4)CCC(F)(F)C3)CC2)cc1Oc1cccc2[nH]ncc12` [Example 522, N-[(5-chloro-6-{[4-fluoro-1-(oxetan-3-yl)piperidin-4-yl]methoxy}pyridin-3-yl)sulfonyl]-4-(4-{[2-(4-chlorophenyl)-5,5-difluorocyclohex-1-en-1-yl]methyl}piperazin-1-yl)-2-(1H-indazol-4-yloxy)benzamide] the same measures were under 0.01 nM, 2.08 nM and over 207.9.
As for `CC1(C)CCC(CN2CCN(c3ccc(C(=O)NS(=O)(=O)c4ccc(NCC5CCOCC5)c([N+](=O)[O-])c4)c(Oc4cccc5[nH]nnc45)c3)CC2)=C(c2ccc(Cl)cc2)C1` [Example 523, 2-(1H-benzotriazol-4-yloxy)-4-(4-{[2-(4-chlorophenyl)-4,4-dimethylcyclohex-1-en-1-yl]methyl}piperazin-1-yl)-N-({3-nitro-4-[(tetrahydro-2H-pyran-4-ylmethyl)amino]phenyl}sulfonyl)benzamide], on GST-Bcl-2, the Ki was under 0.01 nM and the “Binding selectivity ratio” value is over 4944.4. This molecule also yielded a Ki on GST-Bcl-XL of 49.4 nM.
As to `O=C(NS(=O)(=O)c1ccc(NCC2CCOCC2)c([N+](=O)[O-])c1)c1ccc(N2CCN(CC3=C(c4ccc(Cl)cc4)CCC(F)(F)C3)CC2)cc1Oc1cccc2[nH]ncc12` [Example 524, 4-(4-{[2-(4-chlorophenyl)-5,5-difluorocyclohex-1-en-1-yl]methyl}piperazin-1-yl)-2-(1H-indazol-4-yloxy)-N-({3-nitro-4-[(tetrahydro-2H-pyran-4-ylmethyl)amino]phenyl}sulfonyl)benzamide], the Ki was under 0.01 nM at GST-Bcl-2 and 22.2 nM at GST-Bcl-XL. For the same molecule, the “Binding selectivity ratio” value on GST-Bcl-2 is recorded as over 2218.4.
For `CC1(C)CCC(CN2CCN(c3ccc(C(=O)NS(=O)(=O)c4ccc(NC[C@H]5CC[C@](C)(O)CC5)c([N+](=O)[O-])c4)c(Oc4cccc5[nH]ncc45)c3)CC2)=C(c2ccc(Cl)cc2)C1` [Example 525, 4-(4-{[2-(4-chlorophenyl)-4,4-dimethylcyclohex-1-en-1-yl]methyl}piperazin-1-yl)-N-[(4-{[(trans-4-hydroxy-4-methylcyclohexyl)methyl]amino}-3-nitrophenyl)sulfonyl]-2-(1H-indazol-4-yloxy)benzamide], on GST-Bcl-2, the Ki is under 0.01 nM and the “Binding selectivity ratio” value was over 1898.4. This molecule also displayed a Ki at GST-Bcl-XL of 19 nM.
For `CC1(C)CCC(CN2CCN(c3ccc(C(=O)NS(=O)(=O)c4ccc(NC[C@H]5CC[C@@](C)(O)CC5)c([N+](=O)[O-])c4)c(Oc4cccc5[nH]ncc45)c3)CC2)=C(c2ccc(Cl)cc2)C1` [Example 526, 4-(4-{[2-(4-chlorophenyl)-4,4-dimethylcyclohex-1-en-1-yl]methyl}piperazin-1-yl)-N-[(4-{[(cis-4-hydroxy-4-methylcyclohexyl)methyl]amino}-3-nitrophenyl)sulfonyl]-2-(1H-indazol-4-yloxy)benzamide], at GST-Bcl-2, the Ki is under 0.01 nM and the “Binding selectivity ratio” value is given as over 467.9. The Ki at GST-Bcl-XL was determined as 4.68 nM.
Regarding `CC1(C)CCC(CN2CCN(c3ccc(C(=O)NS(=O)(=O)c4ccc(NC[C@H]5CN(C6CC6)CCO5)c([N+](=O)[O-])c4)c(Oc4cccc5[nH]nnc45)c3)CC2)=C(c2ccc(Cl)cc2)C1` [Example 527, 2-(1H-benzotriazol-4-yloxy)-4-(4-{[2-(4-chlorophenyl)-4,4-dimethylcyclohex-1-en-1-yl]methyl}piperazin-1-yl)-N-{[4-({[(2S)-4-cyclopropylmorpholin-2-yl]methyl}amino)-3-nitrophenyl]sulfonyl}benzamide], the inhibition constant (Ki) at GST-Bcl-2 is under 0.01 nM; at GST-Bcl-XL it was 4.22 nM. On GST-Bcl-2, the “Binding selectivity ratio” value was over 421.9.
`CC1(C)CCC(CN2CCN(c3ccc(C(=O)NS(=O)(=O)c4cnc(OCC5(F)CCN(C6COC6)CC5)c(Cl)c4)c(Oc4cccc5[nH]ncc45)c3)CC2)=C(c2ccc(Cl)cc2)C1` [Example 528, N-[(5-chloro-6-{[4-fluoro-1-(oxetan-3-yl)piperidin-4-yl]methoxy}pyridin-3-yl)sulfonyl]-4-(4-{[2-(4-chlorophenyl)-4,4-dimethylcyclohex-1-en-1-yl]methyl}piperazin-1-yl)-2-(1H-indazol-4-yloxy)benzamide]: at GST-Bcl-2, the inhibition constant Ki was under 0.01 nM and the “Binding selectivity ratio” value is over 366.9. This molecule returned a Ki on GST-Bcl-XL of 3.67 nM.
Take `CC1(C)CCC(CN2CCN(c3ccc(C(=O)NS(=O)(=O)c4ccc(NC[C@H]5CN(C6CC6)CCO5)c([N+](=O)[O-])c4)c(Oc4cccc5[nH]ncc45)c3)CC2)=C(c2ccc(Cl)cc2)C1` [Example 529, 4-(4-{[2-(4-chlorophenyl)-4,4-dimethylcyclohex-1-en-1-yl]methyl}piperazin-1-yl)-N-{[4-({[(2S)-4-cyclopropylmorpholin-2-yl]methyl}amino)-3-nitrophenyl]sulfonyl}-2-(1H-indazol-4-yloxy)benzamide]: on GST-Bcl-2, the Ki is under 0.01 nM and the “Binding selectivity ratio” value is over 828.4. This molecule also displayed a Ki on GST-Bcl-XL of 8.28 nM.
In the case of `CC1(C)CCC(CN2CCN(c3ccc(C(=O)NS(=O)(=O)c4ccc(NC[C@H]5CN(C6CC6)CCO5)c([N+](=O)[O-])c4)c(Oc4cccc5[nH]cnc45)c3)CC2)=C(c2ccc(Cl)cc2)C1` [Example 530, 2-(1H-benzimidazol-4-yloxy)-4-(4-{[2-(4-chlorophenyl)-4,4-dimethylcyclohex-1-en-1-yl]methyl}piperazin-1-yl)-N-{[4-({[(2S)-4-cyclopropylmorpholin-2-yl]methyl}amino)-3-nitrophenyl]sulfonyl}benzamide], on GST-Bcl-2, the Ki was under 0.01 nM and the “Binding selectivity ratio” value was over 7666.0. The molecule also registered a Ki at GST-Bcl-XL of 76.7 nM.
With `CC1(O)CCC(COc2ncc(S(=O)(=O)NC(=O)c3ccc(N4CCN(CC5=C(c6ccc(Cl)cc6)CCC(F)(F)C5)CC4)cc3Oc3cccc4[nH]ncc34)cc2Cl)CC1` (stereo not drawn) [Example 531, N-({5-chloro-6-[(trans-4-hydroxy-4-methylcyclohexyl)methoxy]pyridin-3-yl}sulfonyl)-4-(4-{[2-(4-chlorophenyl)-5,5-difluorocyclohex-1-en-1-yl]methyl}piperazin-1-yl)-2-(1H-indazol-4-yloxy)benzamide], on GST-Bcl-2, the inhibition constant (Ki) was under 0.01 nM and the “Binding selectivity ratio” value is over 1257.8. Affinity at GST-Bcl-XL was put at a Ki of 12.6 nM.
For `CC1(C)CCC(CN2CCN(c3ccc(C(=O)NS(=O)(=O)c4ccc(OCC5CCC(C)(O)CC5)c([N+](=O)[O-])c4)c(Oc4cccc5[nH]ncc45)c3)CC2)=C(c2ccc(Cl)cc2)C1` (stereo not drawn) [Example 532, 4-(4-{[2-(4-chlorophenyl)-4,4-dimethylcyclohex-1-en-1-yl]methyl}piperazin-1-yl)-N-({4-[(cis-4-hydroxy-4-methylcyclohexyl)methoxy]-3-nitrophenyl}sulfonyl)-2-(1H-indazol-4-yloxy)benzamide] the same measures were under 0.01 nM, over 981.2 and 9.81 nM.
The matching figures for `CC1(C)CCC(CN2CCN(c3ccc(C(=O)NS(=O)(=O)c4ccc(OCC5CCC(C)(O)CC5)c([N+](=O)[O-])c4)c(Oc4cccc5[nH]ncc45)c3)CC2)=C(c2ccc(Cl)cc2)C1` (stereo not drawn) [Example 533, 4-(4-{[2-(4-chlorophenyl)-4,4-dimethylcyclohex-1-en-1-yl]methyl}piperazin-1-yl)-N-({4-[(trans-4-hydroxy-4-methylcyclohexyl)methoxy]-3-nitrophenyl}sulfonyl)-2-(H-indazol-4-yloxy)benzamide]: under 0.01 nM, over 1044.3 and 10.4 nM.
